# Laboratory results taken from patent publication US20060287251A1, “Combination therapy for glycaemic control” (priority 2003, published 2006).
# Key:
# porcine DP II = biological target: T1, porcine DP II (Sus scrofa, UniProt A0A5G2QK18); experiment: Inhibition of DP IV-like enzymes: dipeptidyl peptidase II; type: biochemical; settings: substrate lysylalanylaminomethylcoumarine, pH 7.6, 30 °C
# T1 construct: The enzyme used was purified from porcine kidney; from tissue; host or cells: porcine kidney
# Method: DP II (3.4.14.2) releases N-terminal dipeptides from oligopeptides if the N-terminus is not protonated (McDonald, J. K., Ellis, S. & Reilly, T. J., 1966, J Biol. Chem., 241, 1494-1501). Pro and Ala in P1-position are preferred residues. The enzyme activity is described as DPIV-like activity, but DP II has an acidic pH-optimum. The enzyme used was purified from porcine kidney. 100 μL glutaminyl pyrrolidine or glutaminyl thiazolidine in an concentration range of 1*10^−4M-5*10^−8M were admixed with 100 μL buffer solution (40 mM HEPES, pH 7.6, 0.015% Brij, 1 mM DTT), 50 μL lysylalanylaminomethylcoumarine solution (5 mM) and 20 μl porcine DP II (250 fold diluted in buffer solution). Fluorescence measurement was performed at 30° C. and λexiatation=380 nm, λemission=465 nm for 25 min using a plate reader (HTS7000 plus, Applied Biosystems, Weiterstadt, Germany).
# Plasma stability = type: in vitro ADME, human; settings: 37 °C; for stability in human plasma: human plasma in vitro; for half-life of the inhibitory potency: human plasma, 5*10^−5, 2.5*10^−5, 1.25*10^−5 M
# Method: In order to investigate the stability of glutaminyl pyrrolidine or glutaminyl thiazolidine in human plasma, the activity of DPIV in plasma was determined at a defined time. The average DPIV activity in human plasma was determined as 43.69 U/mL. In the working solution, the plasma was diluted in 0.9% NaCl to fix the DPIV activity level at 25 U/mL. Plasma and glutaminyl pyrrolidine or glutaminyl thiazolidine in different concentrations (5*10^−5, 2.5*10^−5, 1.25*10^−5 M in plasma) were incubated at 37° C. At defined time points samples were taken using a pipette roboter (Gilson 215, Liquid handler, Gilson) and transferred in a microtiter plate containing 5*10^−5 M glycylprolylaminomethylcoumarine in 0.9% NaCl+015% Brij per well. After 6 min the reaction was stopped by addition of isoleucylthiazolidine (5*10^−5 M in 0.9% NaCl solution). Fluorescence measurement was performed against 0.9% NaCl in plasma (reference standard) using a plate reader (HTS7000 plus, Applied Biosystems, Weiterstadt, Germany). The half-life of the inhibitory potency of glutaminyl pyrrolidine or glutaminyl thiazolidine was calculated by plotting the enzyme activity versus reaction time.
# [1] = biological target: T2, DPIV (N-terminal Xaa-Pro releasing activity) in human plasma (Homo sapiens, UniProt P27487); experiment: Ki-determination in human plasma; type: biochemical
# T2 construct: Human plasma contains N-terminal Xaa-Pro releasing activity; from tissue; host or cells: human plasma
# Method: Human plasma contains N-terminal Xaa-Pro releasing activity. 70 μL glutaminyl pyrrolidine or glutaminyl thiazolidine in an concentration range of 1*10^−5 M -1*10^−7 M (glutaminyl pyrrolidine) and 1*10^−6 M-1*10^−8 M (glutaminyl thiazolidine) respectively were admixed with 50 μL glycylprolyl-4-nitroaniline in different concentrations (0.4 mM, 0.2 mM, 0.1 mM, 0,05 mM) and 100 μl HEPES (40 mM, pH7.6). The assay mixture was pre-incubated at 30 ° C. for 5 min and 22 hours respectively. After pre-incubation, 50 μL human plasma were added and measurement of yellow color development due to 4-nitroaniline release was performed at 30° C. and λ=405 nm for 10 min using a plate reader ([HTS7000 plus, Applied Biosystems, Weiterstadt, Germany). The Ki-values were calculated using Graphit 4.0.15 (Erithacus Software, Ltd, UK) based on a competitive inhibition of DPIV by glutaminyl pyrrolidine or glutaminyl thiazolidine.
# [2] = biological target: T3, recombinant human prolyl oligopeptidase (Homo sapiens, UniProt P48147); experiment: Cross reacting enzymes: prolyl oligopeptidase; type: biochemical; settings: concentration range 1*10^−4 M-5*10^−8 M
# T3 construct: made in house; host or cells: E. coli
# T3 sequence (P48147 1-710): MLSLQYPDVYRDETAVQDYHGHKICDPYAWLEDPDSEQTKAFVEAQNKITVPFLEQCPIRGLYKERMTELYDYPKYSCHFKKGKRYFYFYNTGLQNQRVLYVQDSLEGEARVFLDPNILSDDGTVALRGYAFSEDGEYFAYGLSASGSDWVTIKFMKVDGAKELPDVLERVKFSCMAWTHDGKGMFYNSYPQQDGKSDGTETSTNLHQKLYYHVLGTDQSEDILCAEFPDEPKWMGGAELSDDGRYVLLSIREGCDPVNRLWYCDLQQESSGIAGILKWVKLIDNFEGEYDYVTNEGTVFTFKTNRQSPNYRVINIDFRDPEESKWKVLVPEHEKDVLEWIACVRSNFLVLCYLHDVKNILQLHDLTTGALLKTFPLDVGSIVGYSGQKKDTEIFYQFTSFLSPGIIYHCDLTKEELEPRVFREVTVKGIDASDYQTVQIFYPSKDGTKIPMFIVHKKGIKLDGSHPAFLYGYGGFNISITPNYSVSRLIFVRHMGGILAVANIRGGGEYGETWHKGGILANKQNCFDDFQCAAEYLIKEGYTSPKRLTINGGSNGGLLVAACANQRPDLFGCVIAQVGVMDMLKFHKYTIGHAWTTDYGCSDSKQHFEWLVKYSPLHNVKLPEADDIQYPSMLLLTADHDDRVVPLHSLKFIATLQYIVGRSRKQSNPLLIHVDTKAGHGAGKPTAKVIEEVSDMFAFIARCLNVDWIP
# Method: Glutaminyl pyrrolidine or glutaminyl thiazolidine were tested for their cross reacting potency against dipeptidyl peptidase I, prolyl oligopeptidase and prolidase.
# Prolyl oligopeptidase (EC 3.4.21.26) is a serine type endoprotease which cleaves off peptides at the N-terminal part of the Xaa-Pro bond (Walter, R., Shlank, H., Glass, J. D., Schwartz, I. L. & Kerenyi, T. D., 1971, Science, 173, 827-829). Substrates are peptides with a molecular weight up to 3000 Da. The enzyme used was a recombinant human prolyl oligopeptidase. Recombinant expression was performed in E. coli under standard conditions as described elsewhere in the state of the art. 100 μL glutaminyl pyrrolidine or glutaminyl thiazolidine in an concentration range of 1*10^−4 M-5*10^−8 M were admixed with 100 μL buffer solution (40 mM HEPES, pH 7.6, 0.015% Brij, 1 mM DTT) and 20 μL POP solution. The assay mixture was pre-incubated at 30° C. for 15 min After pre-incubation, 50 μL glycylprolylprolyl-4-nitroaniline solution (0.29 mM) were added and measurement of yellow color development due to 4-nitroaniline release was performed at 30° C. and λ=405 nm for 10 min using a plate reader (sunrise, Tecan, Crailsheim, Germany). The IC 50-values were calculated using Graphit 4.0.15 (Erithacus Software, Ltd., UK). No inhibition of POP activity by glutaminyl pyrrolidine or glutaminyl thiazolidine was found.
# T2 sequence (P27487 39-766 limits assumed): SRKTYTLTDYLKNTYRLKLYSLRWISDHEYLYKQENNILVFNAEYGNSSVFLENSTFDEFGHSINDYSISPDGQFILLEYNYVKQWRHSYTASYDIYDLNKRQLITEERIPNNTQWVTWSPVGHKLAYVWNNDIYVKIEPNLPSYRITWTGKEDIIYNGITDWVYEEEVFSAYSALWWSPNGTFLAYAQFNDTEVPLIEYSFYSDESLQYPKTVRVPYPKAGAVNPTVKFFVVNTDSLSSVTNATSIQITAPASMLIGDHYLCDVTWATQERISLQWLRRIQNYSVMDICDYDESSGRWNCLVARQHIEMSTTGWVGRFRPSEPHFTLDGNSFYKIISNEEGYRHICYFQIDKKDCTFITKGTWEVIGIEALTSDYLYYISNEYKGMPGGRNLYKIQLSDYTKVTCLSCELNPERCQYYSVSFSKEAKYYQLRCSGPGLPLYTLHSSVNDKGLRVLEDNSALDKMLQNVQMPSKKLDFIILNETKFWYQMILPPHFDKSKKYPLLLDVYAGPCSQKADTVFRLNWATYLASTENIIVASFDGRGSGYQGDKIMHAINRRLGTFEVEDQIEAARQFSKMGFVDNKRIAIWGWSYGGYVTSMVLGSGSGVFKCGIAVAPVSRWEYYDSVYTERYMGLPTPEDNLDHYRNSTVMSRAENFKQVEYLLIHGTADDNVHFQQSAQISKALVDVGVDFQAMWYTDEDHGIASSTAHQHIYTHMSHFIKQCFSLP
# T1 sequence (A0A5G2QK18 28-502): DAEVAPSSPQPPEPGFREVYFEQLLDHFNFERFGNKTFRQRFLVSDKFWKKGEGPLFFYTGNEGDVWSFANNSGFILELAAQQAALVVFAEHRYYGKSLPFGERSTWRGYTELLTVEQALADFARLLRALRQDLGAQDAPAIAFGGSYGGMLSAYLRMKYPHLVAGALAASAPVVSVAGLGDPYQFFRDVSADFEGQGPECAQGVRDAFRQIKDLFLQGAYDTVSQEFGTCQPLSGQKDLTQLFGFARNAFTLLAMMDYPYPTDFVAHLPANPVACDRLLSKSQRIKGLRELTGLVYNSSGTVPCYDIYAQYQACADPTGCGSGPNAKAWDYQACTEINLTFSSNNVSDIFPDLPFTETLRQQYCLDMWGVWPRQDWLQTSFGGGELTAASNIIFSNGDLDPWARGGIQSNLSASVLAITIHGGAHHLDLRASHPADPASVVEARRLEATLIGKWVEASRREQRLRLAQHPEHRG
SMILES,Ki (porcine DP II) [µM],stability in human plasma (Plasma stability),half-life of the inhibitory potency (Plasma stability),Ki ([1]; after 5 min pre-incubation) [µM],Ki ([1]; after 22 hours pre-incubation) [µM],inhibition of POP activity [2]
NC(=O)CC[C@H](N)C(=O)N1CCCC1 [glutaminyl pyrrolidine],85.2,stable in human plasma over 22 hours,no half-time could be determined,1.3,1.36,No inhibition
NC(=O)CC[C@H](N)C(=O)N1CCSC1 [glutaminyl thiazolidine],10.7,stable in human plasma over 22 hours,no half-time could be determined,0.403,0.513,No inhibition
